Literature values, collected in patent EP1954843B1, “LEACHING PROCESS IN THE PRESENCE OF HY[…] FOR THE RECOVERY OF A VALUE METAL FROM AN ORE” (Anglo Operations Limited, priority 2005, dated 2007).

Details: at 80°C

In the case of [Cl-].[Cl-].[Zn+2] [zinc chloride], the “soluble to the extent of” value is given as “ca. 84.4 g/100g saturated solution”.
